Laboratory results reported in the supplement of paper PMC5303821, “Major sulfonate transporter Soa1 in Saccharomyces cerevisiae and considerable substrate diversity in its fungal family” (Nature Communications, 2017).

Assays:
Assay in all cases: maximal growth rate with compound as sole sulfur source (OD600 per h); higher = better growth / uptake of the sulfur source
[1] = tested on: Metarhizium robertsii_XP_007823832; conditions: S. cerevisiae S288C/BY sul1Δ sul2Δ soa1Δ with transporter ortholog inserted at SOA1 locus, sulfur-free B medium, 4% glucose, pH 6.5, sole sulfur source
Description: (§1)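 S. cerevisiae sul1Δ sul2Δ soa1Δ strains expressing 20 fungal SOA1 orthologs (or no transporter, 'soa1 del') were grown in liquid sulfur-free B medium, 4% glucose, pH 6.5 (7 mM K2HPO4). The strains were sulfur-starved for 3 days beforehand. Each sulfur compound was the sole sulfur source at 200 µM (sulfate also at 40 mM). OD600 curves of duplicate cultures were averaged and fitted (logistic / Richards, GroFit) to give maximal growth rate, maximal density and lag phase; temperature not stated.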

[2] = tested on: Ogataea parapolymorpha_XP_013935289; conditions: S. cerevisiae S288C/BY sul1Δ sul2Δ soa1Δ with transporter ortholog inserted at SOA1 locus, sulfur-free B medium, 4% glucose, pH 6.5, sole sulfur source
Description: as §1

[3] = tested on: Aspergillus nidulans_CBF74694; conditions: S. cerevisiae S288C/BY sul1Δ sul2Δ soa1Δ with transporter ortholog inserted at SOA1 locus, sulfur-free B medium, 4% glucose, pH 6.5, sole sulfur source
Description: as §1

[4] = tested on: Saccharomyces uvarum_SOA2; conditions: S. cerevisiae S288C/BY sul1Δ sul2Δ soa1Δ with transporter ortholog inserted at SOA1 locus, sulfur-free B medium, 4% glucose, pH 6.5, sole sulfur source
Description: as §1

[5] = tested on: Metarhizium robertsii_XP_007821441; conditions: S. cerevisiae S288C/BY sul1Δ sul2Δ soa1Δ with transporter ortholog inserted at SOA1 locus, sulfur-free B medium, 4% glucose, pH 6.5, sole sulfur source
Description: as §1

[6] = tested on: Ogataea parapolymorpha_XP_013932458; conditions: S. cerevisiae S288C/BY sul1Δ sul2Δ soa1Δ with transporter ortholog inserted at SOA1 locus, sulfur-free B medium, 4% glucose, pH 6.5, sole sulfur source
Description: as §1

[7] = tested on: Fusarium oxysporum_ENH65823; conditions: S. cerevisiae S288C/BY sul1Δ sul2Δ soa1Δ with transporter ortholog inserted at SOA1 locus, sulfur-free B medium, 4% glucose, pH 6.5, sole sulfur source
Description: as §1

soa1 del = conditions: S. cerevisiae S288C/BY sul1Δ sul2Δ soa1Δ with transporter ortholog inserted at SOA1 locus, sulfur-free B medium, 4% glucose, pH 6.5, sole sulfur source
Description: as §1

[8] = tested on: Aspergillus nidulans_XP_661711; conditions: S. cerevisiae S288C/BY sul1Δ sul2Δ soa1Δ with transporter ortholog inserted at SOA1 locus, sulfur-free B medium, 4% glucose, pH 6.5, sole sulfur source
Description: as §1

[9] = tested on: Aspergillus nidulans_XP_681611; conditions: S. cerevisiae S288C/BY sul1Δ sul2Δ soa1Δ with transporter ortholog inserted at SOA1 locus, sulfur-free B medium, 4% glucose, pH 6.5, sole sulfur source
Description: as §1

[10] = tested on: Saccharomyces eubayanus_SOA1; conditions: S. cerevisiae S288C/BY sul1Δ sul2Δ soa1Δ with transporter ortholog inserted at SOA1 locus, sulfur-free B medium, 4% glucose, pH 6.5, sole sulfur source
Description: as §1

[11] = tested on: Aspergillus nidulans_XP_661733; conditions: S. cerevisiae S288C/BY sul1Δ sul2Δ soa1Δ with transporter ortholog inserted at SOA1 locus, sulfur-free B medium, 4% glucose, pH 6.5, sole sulfur source
Description: as §1

[12] = tested on: Saccharomyces cerevisiae_SOA1; conditions: S. cerevisiae S288C/BY sul1Δ sul2Δ soa1Δ with transporter ortholog inserted at SOA1 locus, sulfur-free B medium, 4% glucose, pH 6.5, sole sulfur source
Description: as §1

[13] = tested on: Aspergillus nidulans_XP_660563; conditions: S. cerevisiae S288C/BY sul1Δ sul2Δ soa1Δ with transporter ortholog inserted at SOA1 locus, sulfur-free B medium, 4% glucose, pH 6.5, sole sulfur source
Description: as §1

[14] = tested on: Aspergillus nidulans_CBF80346; conditions: S. cerevisiae S288C/BY sul1Δ sul2Δ soa1Δ with transporter ortholog inserted at SOA1 locus, sulfur-free B medium, 4% glucose, pH 6.5, sole sulfur source
Description: as §1

[15] = tested on: Ogataea parapolymorpha_XP_013936897; conditions: sulfur source concentration 200 µM; S. cerevisiae S288C/BY sul1Δ sul2Δ soa1Δ with transporter ortholog inserted at SOA1 locus; sulfur-free B medium, 4% glucose, pH 6.5, sole sulfur source
Description: as §1

[16] = sulfur source concentration 200 µM
[17] = sulfur source concentration 40000 µM

## O=S(=O)(O)O [sulfate]
[1]; [16]
  maximal growth rate: 0.0813
[1]; [17]
  maximal growth rate: 0.088
[2]; [16]
  maximal growth rate: 0.0777
[2]; [17]
  maximal growth rate: 0.124
[3]; [16]
  maximal growth rate: 0.00273
[3]; [17]
  maximal growth rate: 0.00346
[4]; [16]
  maximal growth rate: 0.00324
[4]; [17]
  maximal growth rate: 0.00336
[5]; [16]
  maximal growth rate: 0.00309
[5]; [17]
  maximal growth rate: 0.00378
[6]; [16]
  maximal growth rate: 0.00477
[6]; [17]
  maximal growth rate: 0.00353
[7]; [16]
  maximal growth rate: 0.00376
[7]; [17]
  maximal growth rate: 0.0142
soa1 del; [16]
  maximal growth rate: 0.00368
soa1 del; [17]
  maximal growth rate: 0.0039
[8]; [16]
  maximal growth rate: 0.00398
[8]; [17]
  maximal growth rate: 0.00545
[9]; [16]
  maximal growth rate: 0.00615
[9]; [17]
  maximal growth rate: 0.0061
[10]; [16]
  maximal growth rate: 0.00395
[10]; [17]
  maximal growth rate: 0.0997
[11]; [16]
  maximal growth rate: 0.00457
[11]; [17]
  maximal growth rate: 0.0588
[12]; [16]
  maximal growth rate: 0.00588
[12]; [17]
  maximal growth rate: 0.123
[13]; [16]
  maximal growth rate: 0.00621
[13]; [17]
  maximal growth rate: 0.00638
[14]; [16]
  maximal growth rate: 0.00472
[14]; [17]
  maximal growth rate: 0.00348
[15]
  maximal growth rate: 0.00477
